Assay results from patent EP4700041A1, “NOVEL PEPTIDE HAVING ACTIVITY OF RETARDING DEGRADATION OF HYALURONIC ACID AND USES THEREOF” (Caregen Co., Ltd., priority 2023, dated 2026).
Ends that are not written are not given here.

How the values were obtained:
[1] = Delay of hyaluronic acid degradation by reactive oxygen species in hyaluronic acid solution (viscosity, rheometer); conditions: 1.5 wt% hyaluronic acid solution in PBS; peptide 100 ppm, 1000 ppm, 5000 ppm; 500 mM H2O2; 60 and 180 minutes; FIG. 5
Experimental: Hyaluronic acid was dissolved in PBS to a concentration of 1.5 wt% and hydrated, and 10 g of this solution was dispensed into each conical tube. Peptide solutions were added to the dispensed hyaluronic acid solutions so that the final peptide concentrations were 0 ppm (no addition), 100 ppm, 1000 ppm, and 5000 ppm, respectively. 2 mL of 500 mM hydrogen peroxide (H2O2) was added to each. Viscosity was measured using a rheometer (single shear stress) by sampling at 0, 30, 60, and 180 minutes to compare the viscosity values according to the peptide concentration. As above, 1.5 wt% hyaluronic acid solutions containing peptides at each concentration were treated with hydrogen peroxide to maintain the degradation reaction by reactive oxygen species for 60 and 180 minutes, thereby degrading hyaluronic acid. After the degradation reaction, the viscosity of each hyaluronic acid solution was measured to confirm the degradation delaying efficacy.

[2] = Delay of hyaluronic acid degradation by reactive oxygen species in BDDE-cross-linked filler (Congo Red diffusion, absorbance 500 nm); conditions: 37°C, FIG. 6
Experimental: A 1,4-Butanediol diglycidyl ether (BDDE)-cross-linked hyaluronic acid filler with or without the peptide of Preparation Example 1 was prepared, and Congo Red and hyaluronidase (HAdase) as absorbing dyes were prepared. 20 µL of 1 mM Congo Red was added to each 1.5 mL eppendorf tube, and 100 µL each of the peptide-free filler (control filler) and the peptide-containing filler were added on the absorbing dye. Each was treated with 350 µL of 500 mM hydrogen peroxide (H2O2). Each tube was placed in an incubator at 37°C, and 100 µL of the sample supernatant was collected at time points of 1 hour, 3 hours, 6 hours, 24 hours, 48 hours, and 72 hours and transferred to 96-wells. The absorbance was measured at 500 nm using a microplate reader (SpectraMax iD3, Molecular devices, USA). As above, BDDE-cross-linked hyaluronic acid filler samples with or without the peptide were prepared, and the degree of degradation of hyaluronic acid filler by reactive oxygen species was compared depending on the presence or absence of peptide. The degree of degradation of hyaluronic acid filler was measured by the change in absorbance due to the diffusion of dye. That is, the principle that the flowability of the sample increases when hyaluronic acid is degraded by reactive oxygen species and thus the diffusion of the dye increases was utilized.

[3] = pH stability of the peptide (HPLC area); assay type: physicochemical; conditions: 1000 ppm solution, pH 4 to pH 10, HPLC area compared with pH 7; FIG. 7b
Experimental: The evaluation of pH stability was performed as follows. A diluted solution of the peptide of Preparation Example 1 at a concentration of 1000 ppm was prepared, and the initial pH value of the solution was measured (pH = 3.21). 0.5 M NaOH was added so as to titrate the pH of the solution to pH 4, pH 7, and pH 10, respectively. Each sample was filtered through a 0.22 µm filter. The area values were compared based on pH 7 measured by HPLC.

[4] = Thermal stability of the peptide (HPLC area); assay type: physicochemical; conditions: 1000 ppm solution, 50°C vs 25°C, 72 hours, FIG. 7a
Experimental: The evaluation of thermal stability was performed as follows. A diluted solution of the peptide of Preparation Example 1 at a concentration of 1000 ppm was prepared, dispensed into 50 mL conical tubes, and placed in an incubator at 25°C and 50°C. After 72 hours, 1 mL of each sample was filtered through a 0.22 µm filter. The area values were compared at 25°C based on pH 7 measured by HPLC.

- degradation delay improved ([2]; BDDE-cross-linked hyaluronic acid filler with peptide vs peptide-free control filler, 24 hours after treatment with 500 mM hydrogen peroxide): ≥ 50%
- effect of delaying degradation ([2]; BDDE-cross-linked hyaluronic acid filler with peptide, treated for 48 hours with 500 mM hydrogen peroxide): 85%
- pH stability [3]: stable
- thermal stability [4]: stable
Sequence: KIWNLEPSRNGT [SEQ ID NO: 1, KIWNLEPSRNGT]
- degradation of hyaluronic acid by reactive oxygen species (viscosity) [1]: degradation of hyaluronic acid was delayed as the concentration of peptide increased
